In patent US12209084B2, “Serotonin 5-HT2B inhibitory compounds” (Zoetis Services LLC, priority 2021, dated 2025):
pIC50: −log10 of the molar value.

Biological target: T1, canine 5-HT2B receptor (Canis lupus familiaris, UniProt Q50DZ8)
T1 construct: expressed in transfected cells; host or cells: CHO-K1
Assay: Canine 5-HT2B (c5-HT2B) in-vitro assay (FLIPR calcium response, antagonist mode)
Format: cell-based
Settings: CHO-K1 cells stably expressing the canine 5-HT2B receptor; intracellular calcium response (FLIPR Calcium 5); inhibition of EC80 concentration of serotonin after 10 minute antagonist incubation; read-out: Compound Receptor IC50 Affinities for c5-HT2B
Experimental: Canine 5-HT2B (c5-HT2B) In-Vitro Assay
CHO-K1 cells stably expressing the canine 5-HT2B receptor were seeded at 20,000 cells per well in 20 μl culture media (DMEM with GlutaMAX™ high glucose+5% dialyzed FBS+10 mM HEPES+1×MEM Non-Essential Amino Acids of a 384-well black plate with clear bottom for at least 18 hours at 37° C. and 5% CO2. The cell plate was loaded with 20 μl/well of the FLIPR© Calcium 5 Assay kit prepared in HBSS containing calcium and magnesium supplemented with 20 mM HEPES and 5 mM Probenecid at pH 7.4 and incubated at 37° C. and 5% CO2 for 30 minutes and then an additional 30 minutes at room temperature. The intracellular calcium response was measured using the FLIPR® Tetra instrument measuring the kinetic response of the calcium 5 dye at an excitation wavelength of 470-495 nm and emission wavelength of 515-575 nm at room temperature. The cells were initially challenged with a 5× concentration of the antagonist (10 μl/well) after an initial baseline recording and the calcium response was recorded for almost 2 minutes. After the completion of the initial antagonist challenge, the cell plate was incubated at room temperature in the FLIPR Tetra® instrument for 10 minutes. Finally, a second kinetic assay was performed after the 10 minute incubation at room temperature to measure the inhibitory response of the EC80 concentration of serotonin (15 μl/well) after an initial baseline recording. The IC50 concentration was determined for each antagonist tested.
In accordance with the in-vitro assay described above, the IC50 affinities for the c5-HT2B receptors for the compounds of the invention are provided in Table 1.

T1 sequence (Q50DZ8 1-434): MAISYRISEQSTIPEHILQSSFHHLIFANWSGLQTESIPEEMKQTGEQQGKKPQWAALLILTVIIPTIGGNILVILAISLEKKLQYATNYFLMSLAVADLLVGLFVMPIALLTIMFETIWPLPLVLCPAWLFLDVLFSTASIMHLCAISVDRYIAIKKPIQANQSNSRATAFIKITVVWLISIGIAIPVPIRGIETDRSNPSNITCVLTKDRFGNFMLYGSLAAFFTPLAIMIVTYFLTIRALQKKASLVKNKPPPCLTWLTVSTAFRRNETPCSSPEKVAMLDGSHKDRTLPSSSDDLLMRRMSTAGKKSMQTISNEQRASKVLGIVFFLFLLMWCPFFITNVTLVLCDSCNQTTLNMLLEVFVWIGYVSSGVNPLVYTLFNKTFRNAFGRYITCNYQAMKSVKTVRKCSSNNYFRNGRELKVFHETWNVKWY

Compound	pIC50
O=C(N[C@@H]1C[C@H]2CC[C@@H](C1)N2Cc1ccccc1)c1ccc2c3c([nH]c2c1)CCCC3 [Example 9, N-((1R,3s,5S)-8-benzyl-8-azabicyclo[3.2.1]octan-3-yl)-2,3,4,9-tetrahydro-1H-carbazole-7-carboxamide]	6.95
O=C(N[C@@H]1C[C@H]2CC[C@@H](C1)N2Cc1ccccc1)c1ccc2cn[nH]c2c1 [Example 10, N-((1R,3s,5S)-8-benzyl-8-azabicyclo[3.2.1]octan-3-yl)-1H-indazole-6-carboxamide]	6.36
O=C(N[C@@H]1C[C@H]2CC[C@@H](C1)N2Cc1ccc(C(F)(F)F)cc1)c1ccc2cc[nH]c2c1 [Example 11, N-((1R,3s,5S)-8-(4-(trifluoromethyl)benzyl)-8-azabicyclo[3.2.1]octan-3-yl)-1H-indole-6-carboxamide]	7.03
O=C(N[C@@H]1C[C@H]2CC[C@@H](C1)N2Cc1ccccn1)c1ccc2cc[nH]c2c1 [Example 12, N-((1R,3s,5S)-8-(pyridin-2-ylmethyl)-8-azabicyclo[3.2.1]octan-3-yl)-1H-indole-6-carboxamide]	7.27
O=C(N[C@@H]1C[C@H]2CC[C@@H](C1)N2Cc1cccnc1)c1ccc2cc[nH]c2c1 [Example 13, N-((1R,3s,5S)-8-(pyridin-3-ylmethyl)-8-azabicyclo[3.2.1]octan-3-yl)-1H-indole-6-carboxamide]	6.18
O=C(N[C@@H]1C[C@H]2CC[C@@H](C1)N2Cc1ccncc1)c1ccc2cc[nH]c2c1 [Example 14, N-((1R,3s,5S)-8-(pyridin-4-ylmethyl)-8-azabicyclo[3.2.1]octan-3-yl)-1H-indole-6-carboxamide]	5.55
O=C(N[C@@H]1C[C@H]2CC[C@@H](C1)N2Cc1cnccn1)c1ccc2cc[nH]c2c1 [Example 15, N-((1R,3s,5S)-8-(pyrazin-2-ylmethyl)-8-azabicyclo[3.2.1]octan-3-yl)-1H-indole-6-carboxamide]	5.43
Cn1ccnc1CN1[C@@H]2CC[C@H]1C[C@H](NC(=O)c1ccc3cc[nH]c3c1)C2 [Example 16, N-((1R,3s,5S)-8-((1-methyl-1H-imidazol-2-yl)methyl)-8-azabicyclo[3.2.1]octan-3-yl)-1H-indole-6-carboxamide]	5.06
O=C(N[C@@H]1C[C@H]2CC[C@@H](C1)N2c1ccccc1)c1ccc2cc[nH]c2c1 [Example 17, N-((1R,3s,5S)-8-phenyl-8-azabicyclo[3.2.1]octan-3-yl)-1H-indole-6-carboxamide]	5.08
O=C(N[C@@H]1C[C@H]2CC[C@@H](C1)N2Cc1ccccc1)c1ccc2ccn(-c3ccncc3)c2c1 [Example 18, N-((1R,3s,5S)-8-benzyl-8-azabicyclo[3.2.1]octan-3-yl)-1-(pyridin-4-yl)-1H-indole-6-carboxamide]	6.27
N#Cc1c[nH]c2cc(C(=O)N[C@@H]3C[C@H]4CC[C@@H](C3)N4Cc3ccccc3)ccc12 [Example 19, N-((1R,3s,5S)-8-benzyl-8-azabicyclo[3.2.1]octan-3-yl)-3-cyano-1H-indole-6-carboxamide]	6.84
O=C(N[C@@H]1C[C@H]2CC[C@@H](C1)N2Cc1ccccc1)c1ccc2ccn(-c3ccc(C(F)(F)F)cc3)c2c1 [Example 21, N-((1R,3s,5S)-8-benzyl-8-azabicyclo[3.2.1]octan-3-yl)-1-(4-(trifluoromethyl)phenyl)-1H-indole-6-carboxamide]	5.96
O=C(N[C@@H]1C[C@H]2CC[C@@H](C1)N2Cc1ccccc1)c1ccc2ccn(-c3ccc(F)cc3)c2c1 [Example 22, N-((1R,3s,5S)-8-benzyl-8-azabicyclo[3.2.1]octan-3-yl)-1-(4-fluorophenyl)-1H-indole-6-carboxamide]	7.49
O=C(N[C@@H]1C[C@H]2CC[C@@H](C1)N2Cc1ccccc1)c1ccc2ccn(-c3ccccc3)c2c1 [Example 23, N-((1R,3s,5S)-8-benzyl-8-azabicyclo[3.2.1]octan-3-yl)-1-phenyl-1H-indole-6-carboxamide]	7.24
O=C(N[C@@H]1C[C@H]2CC[C@@H](C1)N2Cc1ccccc1)c1ccc2ccoc2c1 [Example 24, N-((1R,3s,5S)-8-benzyl-8-azabicyclo[3.2.1]octan-3-yl)benzofuran-6-carboxamide]	9.30
O=C(N[C@@H]1C[C@H]2CC[C@@H](C1)N2Cc1ccns1)c1ccc2cc[nH]c2c1 [Example 25, N-((1R,3s,5S)-8-(isothiazol-5-ylmethyl)-8-azabicyclo[3.2.1]octan-3-yl)-1H-indole-6-carboxamide]	8.85
O=C(N[C@@H]1C[C@H]2CC[C@@H](C1)N2Cc1ccsn1)c1ccc2cc[nH]c2c1 [Example 26, N-((1R,3s,5S)-8-(isothiazol-3-ylmethyl)-8-azabicyclo[3.2.1]octan-3-yl)-1H-indole-6-carboxamide]	7.75
O=C(N[C@@H]1C[C@H]2CC[C@@H](C1)N2Cc1nccs1)c1ccc2cc[nH]c2c1 [Example 27, N-((1R,3s,5S)-8-(thiazol-2-ylmethyl)-8-azabicyclo[3.2.1]octan-3-yl)-1H-indole-6-carboxamide]	6.97
Cc1csc(CN2[C@@H]3CC[C@H]2C[C@H](NC(=O)c2ccc4cc[nH]c4c2)C3)n1 [Example 28, N-((1R,3s,5S)-8-((4-methylthiazol-2-yl)methyl)-8-azabicyclo[3.2.1]octan-3-yl)-1H-indole-6-carboxamide]	6.70

Further compounds by rising pIC50, results first:

pIC50	Compound
7.68	O=C(N[C@@H]1C[C@H]2CC[C@@H](C1)N2Cc1ccccc1)c1ccc2cc(C(F)(F)F)[nH]c2c1 [Example 20, N-((1R,3s,5S)-8-benzyl-8-azabicyclo[3.2.1]octan-3-yl)-2-(trifluoromethyl)-1H-indole-6-carboxamide]
8.40	Cc1cc2ccc(C(=O)N[C@@H]3C[C@H]4CC[C@@H](C3)N4Cc3ccccc3)cc2[nH]1 [Example 8, N-((1R,3s,5S)-8-benzyl-8-azabicyclo[3.2.1]octan-3-yl)-2-methyl-1H-indole-6-carboxamide]
8.82	O=C(N[C@@H]1C[C@H]2CC[C@@H](C1)N2Cc1ccc(Cl)cc1)c1ccc2cc[nH]c2n1 [Example 3, N-((1R,3s,5S)-8-(4-chlorobenzyl)-8-azabicyclo[3.2.1]octan-3-yl)-1H-pyrrolo[2,3-b]pyridine-6-carboxamide]
8.89	O=C(N[C@@H]1C[C@H]2CC[C@@H](C1)N2Cc1cccs1)c1ccc2cc[nH]c2c1 [Example 7, N-((1R,3s,5S)-8-(thiophen-2-ylmethyl)-8-azabicyclo[3.2.1]octan-3-yl)-1H-indole-6-carboxamide]
9.39	O=C(N[C@@H]1C[C@H]2CC[C@@H](C1)N2Cc1ccccc1)c1ccc2cc[nH]c2c1 [Example 1, N-((1R,3s,5S)-8-benzyl-8-azabicyclo[3.2.1]octan-3-yl)-1H-indole-6-carboxamide]
9.51	O=C(N[C@@H]1C[C@H]2CC[C@@H](C1)N2Cc1ccc2[nH]ccc2c1)c1ccc2cc[nH]c2c1 [Example 6, N-((1R,3s,5S)-8-((1H-indol-5-yl)methyl)-8-azabicyclo[3.2.1]octan-3-yl)-1H-indole-6-carboxamide]
9.57	O=C(N[C@@H]1C[C@H]2CC[C@@H](C1)N2Cc1ccc(Cl)cc1)c1ccc2cc[nH]c2c1 [Example 5, N-((1R,3s,5S)-8-(4-chlorobenzyl)-8-azabicyclo[3.2.1]octan-3-yl)-1H-indole-6-carboxamide]
9.82	O=C(N[C@@H]1C[C@H]2CC[C@@H](C1)N2Cc1ccccc1)c1ccc2cc[nH]c2n1 [Example 2, N-((1R,3s,5S)-8-benzyl-8-azabicyclo[3.2.1]octan-3-yl)-1H-pyrrolo[2,3-b]pyridine-6-carboxamide]
9.92	O=C(N[C@@H]1C[C@H]2CC[C@@H](C1)N2Cc1ccc(F)cc1)c1ccc2cc[nH]c2c1 [Example 4, N-((1R,3s,5S)-8-(4-fluorobenzyl)-8-azabicyclo[3.2.1]octan-3-yl)-1H-indole-6-carboxamide]
